Assay results published in patent US9375436B2, “Androgen treatment in females” (priority 2004, dated 2016).
“And” between values parts separate entries of the source, which are not always exact repeats. Equal values may be shown once.

Tested on: women with diminished ovarian function
Assay: Case control study of clinical pregnancy with DHEA supplementation (Example 7)
Type: in vivo, human
Procedure: A case control study of 190 women over 30 years old with diminished ovarian function were studied between 1999 and December 2005. The study group included 89 patients with a mean age of about 41.6 who used supplementation of about 75 mg daily of oral, micronized DHEA for up to four months prior to entry into IVF. […] The primary outcome was clinical pregnancy after the patient's initial visit.
(§1) Ovarian stimulation was identical for study and control groups and consisted of microdose agonist flare, followed by maximal dosage gonadotropin stimulation, using about 300-450 IU of FSH and about 150 IU of HMG. Study patients received DHEA continuously until a positive pregnancy test was obtained or until the patient dropped out of treatment.
In an additional study, a retrospective analysis of a 190 women with diminished ovarian function above 30 years old, who were treated between 1999 and December 2005 was completed to assess the impact of DHEA supplementation on the time interval to the establishment of pregnancy.
A prequalification for each patient's diagnosis of diminished ovarian function was either a sub-diagnosis of premature ovarian aging (POA) or a sub-diagnosis of diminished ovarian reserve (DOR). POA was, in turn, defined as baseline follicle stimulating hormone (b-FSH), on Day 2/3 of a cycle as <12 mIU/ml, but exceeding the 95% CI of the mean value for the patient's age group.
Specifically, this meant b-FSH≧7.4 mIU/ml at age 30-34 years and ≧8.6 mIU/ml at age≧35 years. DOR, in turn, was defined as b-FSH≧12 mIU/ml and/or a baseline estradiol level≧75 pg/ml. 49 patients were confirmed with POA and 52 patients were confirmed with DOR, creating a control group of 101 women. Because of potential impending loss of ovarian function in the control group women, the control group women were treated with IVF as soon as possible.
During the time studied, the study group consisted of 89 patients, with diminished ovarian function (POA 24, DOR 65). Each person in the study group was placed on DHEA supplementation. The DHEA supplementation included administering about 25 mg of (pharmaceutical grade) micronized DHEA, three times daily, for up to about four months (mean 3.8±0.3 months). […] This delay of IVF treatment allowed the possibility of spontaneously conceived pregnancies.
as §1, with “comprised” for “consisted of”, “treatment. DHEA and DHEAS levels were monitored monthly, and patients were interviewed at each visit about adverse reactions to DHEA supplementation.” for “treatment.”
In order to assess the impact of DHEA supplementation on time interval to the establishment of pregnancy, this study was designed as a life-table analysis, measuring not only total pregnancy rates but also the time between initial presentation and end of last treatment intervention.
Each recorded clinical pregnancy, defined as positive fetal cardiac activity on ultrasound examination after 6 weeks, was recorded as a positive outcome. Patients who continued treatments beyond the study period or stopped treatments were considered right censored data at the end of the study period, or at treatment cessation, respectively.
A Cox regression analysis was used to evaluate time-to-event. The model that we used stratified for level of ovarian reserve (POA and DOR) and adjusted for age, day 3 FSH, fertility treatments (none, Intrauterine Insemination and controlled ovarian hyperstimulation (IUI/COH), or IVF) and race/ethnicity. A trend in pregnancy rates over months of DHEA exposure with an interaction term for time and DHEA months of exposure was tested. SPSS for Windows, Standard version 10.0.7 (SPSS Co. Chicago, Ill.) was utilized for data analysis. Continuous outcomes are presented as mean±1 standard error. […]

[1] = DHEA group, intrauterine insemination, no IVF
[2] = DHEA group, no other treatment than DHEA

Compound: C[C@]12CC[C@H](O)CC1=CC[C@@H]1[C@@H]2CC[C@]2(C)C(=O)CC[C@@H]12 [DHEA, Dehydroepiandrosterone]
- proportional hazards ratio for clinical pregnancy relative to controls (HR) (Cox regression, 95% CI 1.2 to 11.8): 3.8
- Implantation (FH/Embryos trans) (DHEA group): (11.4%)
- Implantation (FH/Embryos trans) (n/N) (DHEA group): 13/101
- Miscarriage (Per clinical Pregnancy) (n/N) (DHEA group): 5 of 25 and 5/25
- Normal Day 3 embryos (DHEA group): 2.4±0.03 and 2.4 ± 0.3
- Oocytes (DHEA group): 3.9 ± 0.4
- Positive hCG (>25 mIU/ml) (DHEA group): (30%)
- Positive hCG (>25 mIU/ml) (n/N) (DHEA group): 26/88
- Transferred embryos (DHEA group): 2.1±0.2
- pregnancies established spontaneously (no IVF treatment) out of the 25 (DHEA group): 12
- Clinical Pregnancy (n/N) (DHEA group, all 89 patients): 25 of 89 and 25/89
- Clinical Pregnancy, IUI/COH [1]: (66.7%)
- Clinical Pregnancy, IUI/COH (n/N) [1]: 6 of 9 and 6/9
- Clinical Pregnancy, No Treatment [2]: (35.3%)
- Clinical Pregnancy, No Treatment (n/N) [2]: 6 of 16 and 6/16
- Clinical Pregnancy, IVF (n/N) (DHEA group, patients reaching IVF): 13/64
- Cancellation (IVF) (n/N) (DHEA group, about 25 mg three times daily, 3.8 ± 0.3 months): 9/63
- decrease of the miscarriage rate (DHEA versus control): about 44%
- increase of the percentage of clinical pregnancies (DHEA versus control): about 157%
- mean DHEA and DHEAS levels at cycle day 2 (approximately two months after initiation of treatment): in the low normal ranges
- proportional hazards estimation of pregnancy (HR), extended Cox models (correction for time dependent variables, 95% CI 1.6 to 14.2): 4.8
